Test results taken from patent EP2332528A1, “Substituted aromatic dicarbonic acid amides as medicaments” (Grünenthal GmbH, priority 2009, dated 2011).

Test system: vGLUT1- bzw. vGLUT2-Transporter
Experiment: Glutamate uptake in rat crude synaptic vesicles ([3H]-glutamate uptake)
Assay type: biochemical, Ratte
Conditions: for IC50: read-out: VGLUT (Ratte), IC50; for VGLUT (Ratte), Hemmung [%]: test concentration not given
Text: I. Funktionelle Untersuchung an den vGLUT1- bzw. vGLUT2-Transportern
Die agonistische bzw. antagonistische Wirkung der zu untersuchenden Verbindungen am vGLUT1- bzw. vGLUT2-Transporter der Spezies Ratte kann mit folgendem Assay bestimmt werden.
Glutamat-Uptake in Rattenvesikel ('rat crude synaptic vesicles')
Die Präparation von Vesikeln wurde aus Rattengehirn-Homogenaten (männlichen Ratten, Stamm Wistar SPF, 150-250 g Gewicht) durchgeführt gemäß Roseth et al. (1995) J. Neurochem. 65: 96-103, der sich auf Whittaker et al. (1964) Biochem J. 90, 293-303 und Fykse und Fonnum (1988) J. Neurochem. 50: 1237-1242 bezieht.
Hierzu wurden frisch entnommene Rattengehirne in 0,32 M Saccharose, 10 mM TRIS-maleat, 1 mM EGTA, pH 7,4 (10 ml/g Frischgewicht) mit einem Potter-Homogenisator (Fa. Braun/Melsungen; 5 Kolbenhübe bei 800 Upm) unter Eiskühlung homogenisiert und anschließend für 10 Minuten bei 3.000 g und 4°C zentrifugiert. Der resultierende Überstand wurde bei 20.000 g für 30 Minuten bei 4°C zentrifugiert. Das entstandene Pellet wurde dann im Verhältnis 1:3 mit 10 mM TRIS-maleate, 0,1 mM EGTA, pH 7,4 osmotisch geschockt und die Suspension bei 17000g für 30 min (4°C) zentrifugiert. Die im Überstand verbliebenen Vesikel wurden nun auf einen Dichtegradienten aus 0,6 M Saccharose in 10 mM TRIS-maleat, 1 mM EGTA, pH 7.4 und 0.4 M Saccharose in 10 mM TRIS-maleat, 1 mM EGTA, pH 7.4 geschichtet. Eine Ultrazentrifugation der Gradienten im Ausschwingrotor bei 65000g für 2h (4°C) schloss sich an. Die Vesikel-Fraktion wurde von der 0.4 M Saccharose-Bande isoliert und im Uptake-Versuch eingesetzt.
Die Substratlösung für den Uptake von [^3H]-Glutamat bestand aus ATP (neutralisiert mit Trisma base; 2 mM im Endansatz), Glutamat (0.5 mM im Endansatz) und ^3H-Glutamat (0.5 µCi im Endansatz). In 14 ml-Reagiergefäßen (Sarstedt, Artikel-Nr.: 798438) wurden jeweils 0,3 ml Gesamtvolumina (n=2/Probe) pipettiert in der folgenden Reihenfolge: 1.) 165 µl Inkubationspuffer (110 mM Kaliumtartrat, 10 mM TRIS-maleat, pH 7,4, 4 mM MgCl2), 2.) 10 µl Testsubstanz oder Vehikelkontrolle oder blank, 3.) 100 µl synaptische Vesikel. Es schloss sich eine Vorinkubation von 15 min bei 30°C an (nur blank-Ansätze befanden sich hierbei auf Eis). Danach wurde der Uptake durch Zugabe von 25 µl der oben beschriebenen Substratlösung gestartet. Die Reaktion wurde nach 5 min durch Zugabe von 7,0 ml eiskalter 150 mM KCI gestoppt. Anschließend wurden die Proben mit Hilfe des Brandel Cell Harvesters Typ M-24R über einen Membranfilter der Porengröße 0,8 µm abgesaugt und zweimal mit eiskalter 150 mM KCI nachgewaschen. Die Messung erfolgte am beta-Counter nach 15 h in 10 ml Szintillatorflüssigkeit (Filter Count).
Die Affinität der Verbindungen der allgemeinen Formel (I) für den vGLUT1- bzw. vGLUT2-Transporter wurde wie vorstehend beschrieben bestimmt (Pharmakologische Methoden).

Q: For `O=C(Nc1ccccc1C(=O)O)c1ccc(C(=O)Nc2ccccc2C(=O)O)cc1` [Beispiel 1, 2-(4-(2-Carboxyphenylcarbamoyl)benzamido)benzoesäure], which IC50 is on record?
A: The IC50 was 1290 nM.

Q: What about the “VGLUT (Ratte), Hemmung [%]” value of the same compound?
A: The value was 91%.

Q: What does the source list for `O=C(Nc1ccccc1C(=O)O)c1cccc(C(=O)Nc2ccccc2C(=O)O)c1` [Beispiel 2, 2-(3-(2-Carboxyphenylcarbamoyl)benzamido)benzoesäure]?
A: IC50: 3350 nM; VGLUT (Ratte), Hemmung [%]: 78%

Q: For `O=C(Nc1ccccc1C(=O)O)c1ccc(Oc2ccc(C(=O)Nc3ccccc3C(=O)O)cc2)cc1` [Beispiel 3, 2-(4-(4-(2-Carboxyphenylcarbamoyl)phenoxy)benzamido)-benzoesäure], which IC50 is on record?
A: Its IC50 is 2260 nM.

Q: What about the “VGLUT (Ratte), Hemmung [%]” value of the same compound?
A: Its value is 88%.

Q: Which results are given for `O=C(Nc1cc([N+](=O)[O-])ccc1C(=O)O)c1cccc(C(=O)Nc2cc([N+](=O)[O-])ccc2C(=O)O)c1` [Beispiel 4, 2-(3-(2-Carboxy-5-nitrophenylcarbamoyl)benzamido)-4-nitrobenzoesäure]?
A: IC50: 320 nM; VGLUT (Ratte), Hemmung [%]: 92%

Q: What does the source list for `O=C(Nc1cc([N+](=O)[O-])ccc1C(=O)O)c1ccc(C(=O)Nc2cc([N+](=O)[O-])ccc2C(=O)O)cc1` [Beispiel 5, 2-(4-(2-Carboxy-5-nitrophenylcarbamoyl)benzamido)-4-nitrobenzoesäure]?
A: IC50: 860 nM; VGLUT (Ratte), Hemmung [%]: 88%
